Several values for one entry are separate records, joined by “and”; a condition that tells them apart may be missing. Identical values can stand only once.
Experiment: molar heat capacity at constant pressure
Conditions: 101.33 kPa, Vacuum adiabatic calorimetry

Cc1ccc(-c2ccccc2)cc1 [4-methylbiphenyl]
Conditions | molar heat capacity at constant pressure
200.03 K, Crystal 2 | 158.25 J/K/mol
201.21 K, Crystal 2 | 159.08 J/K/mol
202.67 K, Crystal 2 | 160.39 J/K/mol
204.13 K, Crystal 2 | 161.16 J/K/mol
205.59 K, Crystal 2 | 161.88 J/K/mol
207.05 K, Crystal 2 | 163.01 J/K/mol
208.5 K, Crystal 2 | 164.47 J/K/mol
209.95 K, Crystal 2 | 165.42 J/K/mol
211.41 K, Crystal 2 | 166.95 J/K/mol
212.86 K, Crystal 2 | 167.72 J/K/mol
214.31 K, Crystal 2 | 168.81 J/K/mol
215.75 K, Crystal 2 | 169.75 J/K/mol
217.19 K, Crystal 2 | 170.91 J/K/mol
218.63 K, Crystal 2 | 172.34 J/K/mol
220.07 K, Crystal 2 | 173.54 J/K/mol
221.51 K, Crystal 2 | 174.81 J/K/mol
224.33 K, Crystal 2 | 177.09 J/K/mol
225.77 K, Crystal 2 | 178.63 J/K/mol
227.21 K, Crystal 2 | 179.26 J/K/mol
228.64 K, Crystal 2 | 180.46 J/K/mol
230.07 K, Crystal 2 | 181.65 J/K/mol
231.5 K, Crystal 2 | 183.05 J/K/mol
232.92 K, Crystal 2 | 183.59 J/K/mol
234.35 K, Crystal 2 | 184.76 J/K/mol
235.77 K, Crystal 2 | 186 J/K/mol
237.2 K, Crystal 2 | 186.68 J/K/mol
238.62 K, Crystal 2 | 188.83 J/K/mol
240.04 K, Crystal 2 | 189.96 J/K/mol
241.46 K, Crystal 2 | 190.95 J/K/mol
242.88 K, Crystal 2 | 191.92 J/K/mol
245.71 K, Crystal 2 | 194.12 J/K/mol
247.06 K, Crystal 2 | 195.69 J/K/mol
248.47 K, Crystal 2 | 196.82 J/K/mol
249.87 K, Crystal 2 | 197.8 J/K/mol
251.28 K, Crystal 2 | 198.95 J/K/mol
252.68 K, Crystal 2 | 199.51 J/K/mol
254.07 K, Crystal 2 | 203.15 J/K/mol
255.46 K, Crystal 2 | 205.87 J/K/mol
256.86 K, Crystal 2 | 204.64 J/K/mol
258.26 K, Crystal 2 | 207.95 J/K/mol
259.65 K, Crystal 2 | 209.9 J/K/mol
261.05 K, Crystal 2 | 211.67 J/K/mol
262.45 K, Crystal 2 | 213.5 J/K/mol
263.84 K, Crystal 2 | 216.69 J/K/mol
265.26 K, Crystal 2 | 218.04 J/K/mol
265.74 K, Crystal 2 | 214.98 J/K/mol
266.62 K, Crystal 2 | 215.48 J/K/mol
267.35 K, Crystal 2 | 216.35 J/K/mol
268.06 K, Crystal 2 | 216.34 J/K/mol
268.77 K, Crystal 2 | 218.41 J/K/mol
269.46 K, Crystal 2 | 217.65 J/K/mol
270.14 K, Crystal 2 | 220.43 J/K/mol
270.81 K, Crystal 2 | 221.73 J/K/mol
271.48 K, Crystal 2 | 224.8 J/K/mol
272.13 K, Crystal 2 | 226.98 J/K/mol
272.79 K, Crystal 2 | 228.68 J/K/mol
273.44 K, Crystal 2 | 230.85 J/K/mol
274.09 K, Crystal 2 | 231.46 J/K/mol
274.73 K, Crystal 2 | 233.58 J/K/mol
275.38 K, Crystal 2 | 235.91 J/K/mol
276.02 K, Crystal 2 | 236.58 J/K/mol
276.54 K, Crystal 2 | 238.77 J/K/mol
277.18 K, Crystal 2 | 240.39 J/K/mol
277.82 K, Crystal 2 | 243.02 J/K/mol
278.45 K, Crystal 2 | 244.38 J/K/mol
279.09 K, Crystal 2 | 245.39 J/K/mol
279.72 K, Crystal 2 | 247.06 J/K/mol
280.35 K, Crystal 2 | 249.06 J/K/mol
280.98 K, Crystal 2 | 250.28 J/K/mol
281.61 K, Crystal 2 | 250.82 J/K/mol
282.22 K, Crystal 2 | 253.9 J/K/mol
282.84 K, Crystal 2 | 255.25 J/K/mol
283.47 K, Crystal 2 | 256.25 J/K/mol
284.09 K, Crystal 2 | 257.26 J/K/mol
284.71 K, Crystal 2 | 258.2 J/K/mol
285.32 K, Crystal 2 | 261 J/K/mol
285.94 K, Crystal 2 | 262.67 J/K/mol
286.41 K, Crystal 2 | 265.19 J/K/mol
287.03 K, Crystal 2 | 266.14 J/K/mol
287.64 K, Crystal 2 | 267.86 J/K/mol
288.24 K, Crystal 2 | 270.21 J/K/mol
289.45 K, Crystal 2 | 271.63 J/K/mol
290.05 K, Crystal 2 | 274.89 J/K/mol
290.65 K, Crystal 2 | 278.67 J/K/mol
291.25 K, Crystal 2 | 281.37 J/K/mol
291.85 K, Crystal 2 | 283.3 J/K/mol
292.44 K, Crystal 2 | 287.63 J/K/mol
293.04 K, Crystal 2 | 291.45 J/K/mol
293.63 K, Crystal 2 | 298.7 J/K/mol
294.21 K, Crystal 2 | 301.08 J/K/mol
294.8 K, Crystal 2 | 306.74 J/K/mol
295.38 K, Crystal 2 | 315.73 J/K/mol
295.81 K, Crystal 2 | 323.56 J/K/mol
296.38 K, Crystal 2 | 356.89 J/K/mol
296.78 K, Crystal 2 | 604.38 J/K/mol
298.45 K, Crystal 1 | 252.48 J/K/mol
299.16 K, Crystal 1 | 242.36 J/K/mol
299.72 K, Crystal 1 | 239.35 J/K/mol
300.27 K, Crystal 1 | 238.79 J/K/mol
300.79 K, Crystal 1 | 244.43 J/K/mol
301.28 K, Crystal 1 | 240.52 J/K/mol
301.77 K, Crystal 1 | 242.22 J/K/mol
302.25 K, Crystal 1 | 243.96 J/K/mol
302.73 K, Crystal 1 | 242.88 J/K/mol
303.21 K, Crystal 1 | 243.63 J/K/mol
303.43 K, Crystal 1 | 242.23 J/K/mol
303.9 K, Crystal 1 | 242.44 J/K/mol
304.37 K, Crystal 1 | 241.56 J/K/mol
304.84 K, Crystal 1 | 243.77 J/K/mol
305.31 K, Crystal 1 | 244.44 J/K/mol
305.78 K, Crystal 1 | 244.15 J/K/mol
306.24 K, Crystal 1 | 244.23 J/K/mol
306.7 K, Crystal 1 | 245.51 J/K/mol
307.16 K, Crystal 1 | 246.05 J/K/mol
307.62 K, Crystal 1 | 246.17 J/K/mol
308.08 K, Crystal 1 | 246.5 J/K/mol
308.53 K, Crystal 1 | 247 J/K/mol
308.98 K, Crystal 1 | 247.25 J/K/mol
309.43 K, Crystal 1 | 248.47 J/K/mol
309.88 K, Crystal 1 | 249.54 J/K/mol
310.32 K, Crystal 1 | 249.25 J/K/mol
310.48 K, Crystal 1 | 249.45 J/K/mol
310.92 K, Crystal 1 | 251.3 J/K/mol
311.36 K, Crystal 1 | 251.5 J/K/mol
312.31 K, Crystal 1 | 256.21 J/K/mol
313.97 K, Crystal 1 | 264.83 J/K/mol
314.78 K, Crystal 1 | 273.5 J/K/mol
315.57 K, Crystal 1 | 291.72 J/K/mol
321.28 K, Liquid | 289.67 J/K/mol
322.04 K, Liquid | 290.27 J/K/mol
322.79 K, Liquid | 290.67 J/K/mol
323.53 K, Liquid | 290.73 J/K/mol
324.28 K, Liquid | 291.55 J/K/mol
325.01 K, Liquid | 291.28 J/K/mol
325.74 K, Liquid | 291.46 J/K/mol
326.47 K, Liquid | 293.2 J/K/mol
327.19 K, Liquid | 292.01 J/K/mol
327.91 K, Liquid | 293.22 J/K/mol
328.27 K, Liquid | 292.87 J/K/mol
328.98 K, Liquid | 293.44 J/K/mol
329.68 K, Liquid | 293.4 J/K/mol
330.38 K, Liquid | 294.27 J/K/mol
331.07 K, Liquid | 293.42 J/K/mol
331.76 K, Liquid | 294.54 J/K/mol
332.45 K, Liquid | 294.83 J/K/mol
333.13 K, Liquid | 295.75 J/K/mol
333.8 K, Liquid | 295.68 J/K/mol
334.47 K, Liquid | 295.42 J/K/mol
336.41 K, Liquid | 298.11 J/K/mol
337.06 K, Liquid | 298.19 J/K/mol
337.7 K, Liquid | 298.22 J/K/mol
338.34 K, Liquid | 298.05 J/K/mol
338.57 K, Liquid | 298.82 J/K/mol
339.03 K, Liquid | 300.03 J/K/mol
339.2 K, Liquid | 299.1 J/K/mol
340.45 K, Liquid | 299.61 J/K/mol
341.07 K, Liquid | 299.94 J/K/mol
341.68 K, Liquid | 301.45 J/K/mol
342.29 K, Liquid | 300.21 J/K/mol
342.89 K, Liquid | 301.42 J/K/mol
343.49 K, Liquid | 302.55 J/K/mol
344.08 K, Liquid | 301.94 J/K/mol
344.67 K, Liquid | 303 J/K/mol
345.25 K, Liquid | 303.08 J/K/mol
346.41 K, Liquid | 304.11 J/K/mol
346.98 K, Liquid | 304.03 J/K/mol
347.55 K, Liquid | 304.56 J/K/mol
347.66 K, Liquid | 303.66 J/K/mol
348.78 K, Liquid | 306.1 J/K/mol
349.3 K, Liquid | 305.23 J/K/mol
349.88 K, Liquid | 305.3 J/K/mol
350.42 K, Liquid | 305.41 J/K/mol
350.96 K, Liquid | 306.68 J/K/mol
351.49 K, Liquid | 306.74 J/K/mol
352.02 K, Liquid | 307.44 J/K/mol
352.55 K, Liquid | 307.72 J/K/mol
353.07 K, Liquid | 307.31 J/K/mol
353.59 K, Liquid | 308.24 J/K/mol
354.1 K, Liquid | 307.67 J/K/mol
354.61 K, Liquid | 308.41 J/K/mol
355.12 K, Liquid | 308.12 J/K/mol
355.62 K, Liquid | 308.6 J/K/mol and 307.85 J/K/mol
356.11 K, Liquid | 307.9 J/K/mol
356.61 K, Liquid | 309.76 J/K/mol
357.09 K, Liquid | 308.25 J/K/mol
357.58 K, Liquid | 309.03 J/K/mol
358.05 K, Liquid | 309.85 J/K/mol
358.53 K, Liquid | 309.78 J/K/mol
359 K, Liquid | 309.73 J/K/mol
359.47 K, Liquid | 309.75 J/K/mol
359.53 K, Liquid | 309.84 J/K/mol
360.39 K, Liquid | 310.32 J/K/mol
360.84 K, Liquid | 311.4 J/K/mol
361.29 K, Liquid | 311.64 J/K/mol
361.74 K, Liquid | 310.99 J/K/mol
362.18 K, Liquid | 311.55 J/K/mol
362.52 K, Liquid | 311.51 J/K/mol
362.62 K, Liquid | 311.89 J/K/mol
362.96 K, Liquid | 311.52 J/K/mol
363.39 K, Liquid | 310.96 J/K/mol
365.49 K, Liquid | 313.17 J/K/mol
365.9 K, Liquid | 312.29 J/K/mol
366.3 K, Liquid | 313.49 J/K/mol
366.7 K, Liquid | 314.04 J/K/mol
367.1 K, Liquid | 313.11 J/K/mol
367.49 K, Liquid | 314.44 J/K/mol
367.88 K, Liquid | 314.05 J/K/mol
368.27 K, Liquid | 313.75 J/K/mol
368.45 K, Liquid | 313.66 J/K/mol
368.65 K, Liquid | 313.35 J/K/mol
368.82 K, Liquid | 312.67 J/K/mol
369.2 K, Liquid | 314.01 J/K/mol
369.57 K, Liquid | 314.85 J/K/mol
369.94 K, Liquid | 314.67 J/K/mol
370.3 K, Liquid | 314.64 J/K/mol
370.66 K, Liquid | 315.15 J/K/mol
371.02 K, Liquid | 314.85 J/K/mol
371.37 K, Liquid | 314.45 J/K/mol
371.71 K, Liquid | 316.2 J/K/mol
372.06 K, Liquid | 315.57 J/K/mol
372.39 K, Liquid | 315.1 J/K/mol

Source: the NIST ThermoML archive (doi:10.1016/j.jct.2010.05.002)
